Source: patent US20220105058A1, “USE OF 3-O-SULFAMATE-16,16-DIMETHYL-D-HOMOEQUILENIN TO TREAT ONCOLOGICAL DISEASES” (priority 2018, published 2022)
Several values for one entry are separate records, joined by “and”; a condition that tells them apart may be missing. Equal values may be shown once. Entries after “also recorded” stand apart in the source; their conditions may differ. Read-outs that look alike come from different tables or passages of the source. Marks after values point to notes of the source that are not given here.

Legend:
[1] = system: Breast tumors (BT) in female FBV/N mice transgenic for HER-2/neu; experiment: antitumor activity in mice with HER-2/neu breast tumors; type: in vivo, FVB mice transgenic for HER-2/neu; details: Tamoxifen 4 mg/kg
From the text: The age of animals at the beginning of the study was 21-41 weeks and weight was 25-30 g.
The control groups were given the olive oil (placebo).
TGI=(Vctrl−Vexp)/Vctrl×100(%),

[2] = system: uterine body without horns; experiment: uterine body weight (hormonal effect) on Day 28; type: in vivo, FVB mice transgenic for HER-2/neu; details: Tamoxifen 4 mg/kg, Day 28
Experimental: To estimate the hormonal effect of the medicament, the weight of uterine body without horns was measured on Day 28 of the observation period (Table 9).

[3] = system: subcutaneous xenografts of human SKBR-3 breast cancer
Experimental: (§1) A comparative study of the medicaments in vivo was performed in female Balb/c nude mice with subcutaneously (s.c.) transplanted tumor cells. The experiment lasted for 29 days after the medicament administration for the first time (the administration of the medicaments was started on Day 5 after the tumor strain transplantation).
(§2) The medicament and the reference drug were administered intragastrically multiple times at doses of 30 mg/kg and 10 mg/kg daily for 21 days.
(§3) The placebo group was given 1% starch solution intragastrically in equivalent volumes and in the same regime. Tumor nodes were measured 2 times per week. […] Once the treatment was completed, the last tumor measurement was carried out, and animals were weighed and euthanized.
(§4) The animals were weighed on the first day of the experiment, and then 2 times per week throughout the experiment according to the research protocol.
(§5) A tumor node was measured after tumor transplantation 2 times per week throughout the experiment. The tumor node volume was determined by the formula:
(§6) V=π/6*L*W*H, where L, W, H are the linear size dimensions of the tumor.
(§7) Determination of Antitumor Activity
(§8) Tumor growth inhibition index (TGI) was used as a criterion for the study of the medicament efficacy and calculated by the formula as follows:
(§9) TGI (%)=|Vctrl−Vexp|/Vctrl*100
(§10) where Vctrl and Vexp are the average tumor volume (mm^3) in the control and in the experimental groups, respectively.
(§11) After the course of the treatment, the animals were euthanized by the cervical dislocation of cervical vertebrae.
(§12) The statistical data processing was conducted using SPSS 21 package (license No. 20130626-3). Descriptive statistics in the study includes the following: arithmetic average, standard deviation (SD), standard mean error (SE), median, quartiles, interquartile range. To compare quantitative characteristics in the groups, the Mann-Whitney-Wilcoxon test was used without corrections for multiple comparisons. The results were considered statistically significant at p<0.05.

[4] = system: subcutaneous xenografts of human TNBC-Kad breast cancer
Experimental: as §1, §2, §3, §4, §5, §6, §7, §8, §9, §10, §11, §12

CC/C(=C(\c1ccccc1)c1ccc(OCCN(C)C)cc1)c1ccccc1 [Tamoxifen]
Average volume of new tumors at the end of observation period (M) [1]: 0.20 cm^3
average total volume of tumors, % changes from baseline ([1]; 28 days): 338%
average volume of tumors, % changes from baseline ([1]; 28 days): 338%
TGI (average total tumor volume) ([1]; Day 0): 44%
TGI (average tumor volume) ([1]; Day 0): 24%
average total volume of tumors in mice (M) ([1]; Day 0): 1.26 cm^3
average volume of tumors (M) ([1]; Day 0): 0.29 cm^3
TGI (average total tumor volume) ([1]; Day 7): 33%
TGI (average tumor volume) ([1]; Day 7): 8%
average total volume of tumors in mice (M) ([1]; Day 7): 2.01 cm^3
average volume of tumors (M) ([1]; Day 7): 0.46 cm^3
TGI (average total tumor volume) ([1]; Day 14): 32%
TGI (average tumor volume) ([1]; Day 14): 7%
average total volume of tumors in mice (M) ([1]; Day 14): 2.84 cm^3
average volume of tumors (M) ([1]; Day 14): 0.65 cm^3
TGI (average total tumor volume) ([1]; Day 21): 36%
TGI (average tumor volume) ([1]; Day 21): 12%
average total volume of tumors in mice (M) ([1]; Day 21): 3.23 cm^3
average volume of tumors (M) ([1]; Day 21): 0.75 cm^3
TGI (average total tumor volume) ([1]; Day 28): 5%
TGI (average tumor volume) ([1]; Day 28): −31%
average total volume of tumors in mice (M) ([1]; Day 28): 5.52 cm^3
average volume of tumors (M) ([1]; Day 28): 1.27* cm^3
Total number of new tumors ([1]; end of experiment): 32
frequency of tumor stabilizations ([1]; end of observation): 3%
Uterine body weight ([2]; All mice): 28 ± 1 mg
Uterine body weight ([2]; estrus (E-9)): 28 ± 1 mg
average tumor volume (M ± m) ([3]; Tamoxifen 10 mg/kg, Day 0): 0.7±0.1 mm^3
average tumor volume (M ± m) ([3]; Tamoxifen 10 mg/kg, Day 3): 1.0 ± 0.3 mm^3
SKBR-3 growth inhibition, TGI ([3]; Tamoxifen 10 mg/kg, Day 7): 63.9%
average tumor volume (M ± m) ([3]; Tamoxifen 10 mg/kg, Day 7): 7.2±3.9 mm^3
SKBR-3 growth inhibition, TGI ([3]; Tamoxifen 10 mg/kg, Day 10): 56.9%
average tumor volume (M ± m) ([3]; Tamoxifen 10 mg/kg, Day 10): 33.4±16.1 mm^3
SKBR-3 growth inhibition, TGI ([3]; Tamoxifen 10 mg/kg, Day 14): 60.6%
average tumor volume (M ± m) ([3]; Tamoxifen 10 mg/kg, Day 14): 47.5±16.8 mm^3
SKBR-3 growth inhibition, TGI ([3]; Tamoxifen 10 mg/kg, Day 17): 68.9%
average tumor volume (M ± m) ([3]; Tamoxifen 10 mg/kg, Day 17): 58.0±18.2 mm^3
SKBR-3 growth inhibition, TGI ([3]; Tamoxifen 10 mg/kg, Day 21): 45.4%
average tumor volume (M ± m) ([3]; Tamoxifen 10 mg/kg, Day 21): 145.5 ± 70.9 mm^3
SKBR-3 growth inhibition, TGI ([3]; Tamoxifen 10 mg/kg, Day 24): 9.5%
average tumor volume (M ± m) ([3]; Tamoxifen 10 mg/kg, Day 24): 211.1 ± 94.0 mm^3
average tumor volume (M ± m) ([3]; Tamoxifen 30 mg/kg, Day 0): 0.9±0.2 mm^3
average tumor volume (M ± m) ([3]; Tamoxifen 30 mg/kg, Day 3): 2.0 ± 0.4 mm^3
SKBR-3 growth inhibition, TGI ([3]; Tamoxifen 30 mg/kg, Day 7): 6.2%
average tumor volume (M ± m) ([3]; Tamoxifen 30 mg/kg, Day 7): 18.8±7.4 mm^3
SKBR-3 growth inhibition, TGI ([3]; Tamoxifen 30 mg/kg, Day 10): 12.6%
average tumor volume (M ± m) ([3]; Tamoxifen 30 mg/kg, Day 10): 67.6 ± 21.1 mm^3
SKBR-3 growth inhibition, TGI ([3]; Tamoxifen 30 mg/kg, Day 14): 2.9%
average tumor volume (M ± m) ([3]; Tamoxifen 30 mg/kg, Day 14): 117.1 ± 41.7 mm^3
SKBR-3 growth inhibition, TGI ([3]; Tamoxifen 30 mg/kg, Day 17): −17.1%
average tumor volume (M ± m) ([3]; Tamoxifen 30 mg/kg, Day 17): 218.3 ± 63.6 mm^3
SKBR-3 growth inhibition, TGI ([3]; Tamoxifen 30 mg/kg, Day 21): −44.2% and −44.4%
average tumor volume (M ± m) ([3]; Tamoxifen 30 mg/kg, Day 21): 384.8±103.2 mm^3
SKBR-3 growth inhibition, TGI ([3]; Tamoxifen 30 mg/kg, Day 24): −68.1%
average tumor volume (M ± m) ([3]; Tamoxifen 30 mg/kg, Day 24): 392.1 mm^3
antitumor efficacy ([3]; pilot experiment, Tamoxifen 10 mg/kg): not effective
effect on tumor growth ([3]; pilot experiment, Tamoxifen 10 mg/kg, Days 10 to 17): tumor growth stimulation was recorded
tumor growth inhibition over the entire observation period ([4]; Tamoxifen 10 mg/kg): no tumor growth inhibition was detected; also recorded: is not effective
average tumor volume (M ± m) ([4]; Tamoxifen 10 mg/kg, Day 0): 2.3±0.8 mm^3 and 2.33 ± 0.76 mm^3
average tumor volume (M ± m) ([4]; Tamoxifen 10 mg/kg, Day 3): 25.61 ± 5.56 mm^3
TNBC_Kad growth inhibition, TGI ([4]; Tamoxifen 10 mg/kg, Day 7): 0.5%
average tumor volume (M ± m) ([4]; Tamoxifen 10 mg/kg, Day 7): 79.17 ± 18.80 mm^3
TNBC_Kad growth inhibition, TGI ([4]; Tamoxifen 10 mg/kg, Day 10): −20.7%
average tumor volume (M ± m) ([4]; Tamoxifen 10 mg/kg, Day 10): 122.09 ± 27.84 mm^3
TNBC_Kad growth inhibition, TGI ([4]; Tamoxifen 10 mg/kg, Day 14): −18.4%
average tumor volume (M ± m) ([4]; Tamoxifen 10 mg/kg, Day 14): 193.24 ± 54.10 mm^3
TNBC_Kad growth inhibition, TGI ([4]; Tamoxifen 10 mg/kg, Day 17): −22.6%
average tumor volume (M ± m) ([4]; Tamoxifen 10 mg/kg, Day 17): 237.32 ± 77.07 mm^3
TNBC_Kad growth inhibition, TGI ([4]; Tamoxifen 10 mg/kg, Day 21): −7.9%
average tumor volume (M ± m) ([4]; Tamoxifen 10 mg/kg, Day 21): 322.76 ± 88.25 mm^3
average tumor volume (M ± m) ([4]; Tamoxifen 30 mg/kg, Day 0): 4.1±1.2 mm^3 and 4.14 ± 1.22 mm^3
average tumor volume (M ± m) ([4]; Tamoxifen 30 mg/kg, Day 3): 17.12 ± 4.12 mm^3
average tumor volume (M ± m) ([4]; Tamoxifen 30 mg/kg, Day 7): 44.1±8.8 mm^3 and 44.13 ± 8.81 mm^3
TNBC_Kad growth inhibition, TGI ([4]; Tamoxifen 30 mg/kg, Day 10): 39.4%
average tumor volume (M ± m) ([4]; Tamoxifen 30 mg/kg, Day 10): 61.37 ± 12.03 mm^3
TNBC_Kad growth inhibition, TGI ([4]; Tamoxifen 30 mg/kg, Day 14): 26.8%
average tumor volume (M ± m) ([4]; Tamoxifen 30 mg/kg, Day 14): 119.53 ± 18.54 mm^3
TNBC_Kad growth inhibition, TGI ([4]; Tamoxifen 30 mg/kg, Day 17): 26.7%
average tumor volume (M ± m) ([4]; Tamoxifen 30 mg/kg, Day 17): 141.85 ± 35.07 mm^3
TNBC_Kad growth inhibition, TGI ([4]; Tamoxifen 30 mg/kg, Day 21): 33.3%
average tumor volume (M ± m) ([4]; Tamoxifen 30 mg/kg, Day 21): 199.54 ± 43.55 mm^3
